Source: patent publication US9211310B2, “Use of a Chinese medicine composition in preparing medicaments for treating secondary prevention of myocardial infarction” (TASLY PHARMACEUTICAL GROUP CO., LTD, priority 2010, dated 2015)

System: patients after acute myocardial infarction
Assay: TCM symptom score, total and single (chest pain, chest tightness, short breath, fatigue, palpitation, spontaneous perspiration, pale complexion), same clinical trial
Type: in vivo, human
Set-up: total score of TCM symptom, Mean / total score of TCM symptom, Min / total score of TCM symptom, Max / total score of TCM symptom, Md / change of total score of TCM symptom, Mean / change of total score of TCM symptom, Max / change of total score of TCM symptom, Md: scale not given here
Conditions: FAS
Excerpt: 3508 patients who were in accordance with the diagnostic standards of AMI for 28 days to 2 years and differentiated as Qi deficiency and blood stagnation syndrome by TCM were studied. 0.5 g Chinese medicine composition prepared by the method of EXAMPLE 1 (Coded as QSYQ) was administrated half an hour after meal, 3 times per day.
They included the overall survival time, angina pectoris score, TCM symptom score and life quality score, where angina pectoris score, TCM symptom score and life quality score were evaluated at randomization, in 1st, 3rd, 6th, 9th, 12th month after treatment and 18th month after follow-up.
The analysis method referred to the angina pectoris score.

[1] = 6 months after treatment-baseline
[2] = 9 months after treatment-baseline

With CC(=O)Oc1ccccc1C(=O)O [Control group, aspirine] the “change of fatigue −2, number of patients” value [1] was 108, the “change of fatigue −4, % of patients” value [1] was “(0.70%)” and the “change of fatigue −4, number of patients” value [1] was 12. For the same compound, the “change of fatigue −6, % of patients” value [1] was “(0.00%)”, the “change of fatigue −6, number of patients” value [1] was 0 and the “change of pale complexion 0, number of patients” value [1] was 1322. For the same compound, the “change of pale complexion 0, percent of patients” value [1] was “(77.40%)”, the “change of pale complexion 1, number of patients” value [1] was 319 and the “change of pale complexion 1, percent of patients” value [1] was “(18.68%)”. The “change of pale complexion −1, number of patients” value [1] was 67, the “change of pale complexion −1, percent of patients” value [1] was “(3.92%)” and the “change of palpitation 0, number of patients” value [1] was 1034. For the same compound, the “change of palpitation 0, percent of patients” value [1] was “(60.47%)”, the “change of palpitation 1, number of patients” value [1] was 490 and the “change of palpitation 1, percent of patients” value [1] was “(28.65%)”. For the same compound, the “change of palpitation 2, number of patients” value [1] was 56, the “change of palpitation 2, percent of patients” value [1] was “(3.27%)” and the “change of palpitation 3, number of patients” value [1] was 9. The “change of palpitation 3, percent of patients” value [1] was “(0.53%)”, the “change of palpitation −1, percent of patients” value [1] was “(6.78%)” and the “change of palpitation −2, number of patients” value [1] was 5. For the same compound, the “change of palpitation −2, percent of patients” value [1] was “(0.29%)”, the “change of palpitation −3, number of patients” value [1] was 0 and the “change of palpitation −3, percent of patients” value [1] was “(0.00%)”. The “change of short breath 0, % of patients” value [1] was “(64.85%)”, the “change of short breath 0, number of patients” value [1] was 1109 and the “change of short breath 2, % of patients” value [1] was “(25.44%)”. For the same compound, the “change of short breath 2, number of patients” value [1] was 435, the “change of short breath 4, % of patients” value [1] was “(2.98%)” and the “change of short breath 4, number of patients” value [1] was 51. For the same compound, the “change of short breath 6, % of patients” value [1] was “(0.53%)”, the “change of short breath 6, number of patients” value [1] was 9 and the “change of short breath −2, % of patients” value [1] was “(5.96%)”. The “change of short breath −2, number of patients” value [1] was 102, the “change of short breath −4, % of patients” value [1] was “(0.12%)” and the “change of short breath −4, number of patients” value [1] was 2. The “change of short breath −6, % of patients” value [1] was “(0.12%)”, the “change of short breath −6, number of patients” value [1] was 2 and the “change of spontaneous perspiration 0, number of patients” value [1] was 959. For the same compound, the “change of spontaneous perspiration 0, percent of patients” value [1] was “(56.11%)”, the “change of spontaneous perspiration 1, number of patients” value [1] was 468 and the “change of spontaneous perspiration 1, percent of patients” value [1] was “(27.38%)”. For the same compound, the “change of spontaneous perspiration 2, number of patients” value [1] was 93, the “change of spontaneous perspiration 2, percent of patients” value [1] was “(5.44%)” and the “change of spontaneous perspiration 3, number of patients” value [1] was 29. For the same compound, the “change of spontaneous perspiration 3, percent of patients” value [1] was “(1.70%)”, the “change of spontaneous perspiration −1, number of patients” value [1] was 137 and the “change of spontaneous perspiration −1, percent of patients” value [1] was “(8.02%)”. For the same compound, the “change of spontaneous perspiration −2, number of patients” value [1] was 23, the “change of spontaneous perspiration −2, percent of patients” value [1] was “(1.35%)” and the “change of spontaneous perspiration −3, number of patients” value [1] was 0. For the same compound, the “change of spontaneous perspiration −3, percent of patients” value [1] was “(0.00%)”, the “change of total score of TCM symptom, Max” value [1] was 19.00 and the “change of total score of TCM symptom, Md” value [1] was −3.00. The “change of total score of TCM symptom, Mean” value [1] was −3.76, the “change of total score of TCM symptom, Min” value [1] was −33.00 and the “distribution of total score of TCM symptom: Medium, number of patients” value (9 months after treatment) was 345. For the same compound, the “distribution of total score of TCM symptom: Medium, percentage of patients” value (9 months after treatment) was “(23.03%)”, the “distribution of total score of TCM symptom: Mild, number of patients” value (9 months after treatment) was 1149 and the “distribution of total score of TCM symptom: Mild, percentage of patients” value (9 months after treatment) was “(76.70%)”. The “distribution of total score of TCM symptom: Severe, number of patients” value (9 months after treatment) was 4, the “distribution of total score of TCM symptom: Severe, percentage of patients” value (9 months after treatment) was “(0.27%)” and the “fatigue score 0, % of patients” value (9 months after treatment) was “(33.53%)”. The “fatigue score 0, number of patients” value (9 months after treatment) was 576, the “fatigue score 2, % of patients” value (9 months after treatment) was “(60.24%)” and the “fatigue score 2, number of patients” value (9 months after treatment) was 1035. The “fatigue score 4, % of patients” value (9 months after treatment) was “(5.12%)”, the “fatigue score 4, number of patients” value (9 months after treatment) was 88 and the “fatigue score 6, % of patients” value (9 months after treatment) was “(1.11%)”. For the same compound, the “fatigue score 6, number of patients” value (9 months after treatment) was 19, the “pale complexion score 0, number of patients” value (9 months after treatment) was 912 and the “pale complexion score 0, percent of patients” value (9 months after treatment) was “(53.08%)”. For the same compound, the “pale complexion score 1, number of patients” value (9 months after treatment) was 653, the “pale complexion score 1, percent of patients” value (9 months after treatment) was “(38.01%)” and the “pale complexion score 2, number of patients” value (9 months after treatment) was 142. The “pale complexion score 2, percent of patients” value (9 months after treatment) was “(8.27%)”, the “pale complexion score 3, number of patients” value (9 months after treatment) was 11 and the “pale complexion score 3, percent of patients” value (9 months after treatment) was “(0.64%)”. For the same compound, the “palpitation score 0, number of patients” value (9 months after treatment) was 581, the “palpitation score 0, percent of patients” value (9 months after treatment) was “(33.82%)” and the “palpitation score 2, number of patients” value (9 months after treatment) was 929. For the same compound, the “palpitation score 2, percent of patients” value (9 months after treatment) was “(54.07%)”, the “palpitation score 4, number of patients” value (9 months after treatment) was 179 and the “palpitation score 4, percent of patients” value (9 months after treatment) was “(10.42%)”. The “palpitation score 6, number of patients” value (9 months after treatment) was 29, the “palpitation score 6, percent of patients” value (9 months after treatment) was “(1.69%)” and the “short breath score 0, % of patients” value (9 months after treatment) was “(28.46%)”. For the same compound, the “short breath score 0, number of patients” value (9 months after treatment) was 489, the “short breath score 3, % of patients” value (9 months after treatment) was “(57.86%)” and the “short breath score 3, number of patients” value (9 months after treatment) was 994. The “short breath score 6, % of patients” value (9 months after treatment) was “(13.21%)”, the “short breath score 6, number of patients” value (9 months after treatment) was 227 and the “short breath score 9, % of patients” value (9 months after treatment) was “(0.47%)”. For the same compound, the “short breath score 9, number of patients” value (9 months after treatment) was 8, the “spontaneous perspiration score 0, number of patients” value (9 months after treatment) was 788 and the “spontaneous perspiration score 0, percent of patients” value (9 months after treatment) was “(45.87%)”. The “spontaneous perspiration score 1, number of patients” value (9 months after treatment) was 813, the “spontaneous perspiration score 1, percent of patients” value (9 months after treatment) was “(47.32%)” and the “spontaneous perspiration score 2, number of patients” value (9 months after treatment) was 105. For the same compound, the “spontaneous perspiration score 2, percent of patients” value (9 months after treatment) was “(6.11%)”, the “spontaneous perspiration score 3, number of patients” value (9 months after treatment) was 12 and the “spontaneous perspiration score 3, percent of patients” value (9 months after treatment) was “(0.70%)”. For the same compound, the “total score of TCM symptom, Max” value (9 months after treatment) was 37.00, the “total score of TCM symptom, Md” value (9 months after treatment) was 8.00 and the “total score of TCM symptom, Mean” value (9 months after treatment) was 9.29. For the same compound, the “total score of TCM symptom, Min” value (9 months after treatment) was 0.00, the “change of fatigue 0, % of patients” value [2] was “(50.53%)” and the “change of fatigue 0, number of patients” value [2] was 864. The “change of fatigue 2, % of patients” value [2] was “(33.45%)”, the “change of fatigue 2, number of patients” value [2] was 572 and the “change of fatigue 4, % of patients” value [2] was “(7.31%)”. The “change of fatigue 4, number of patients” value [2] was 125, the “change of fatigue 6, % of patients” value [2] was “(1.17%)” and the “change of fatigue 6, number of patients” value [2] was 20. For the same compound, the “change of fatigue −2, % of patients” value [2] was “(6.73%)”, the “change of fatigue −2, number of patients” value [2] was 115 and the “change of fatigue −4, % of patients” value [2] was “(0.76%)”. For the same compound, the “change of fatigue −4, number of patients” value [2] was 13, the “change of fatigue −6, % of patients” value [2] was “(0.06%)” and the “change of fatigue −6, number of patients” value [2] was 1. For the same compound, the “change of pale complexion 0, number of patients” value [2] was 1284, the “change of pale complexion 0, percent of patients” value [2] was “(75.18%)” and the “change of pale complexion 1, number of patients” value [2] was 365. For the same compound, the “change of pale complexion 1, percent of patients” value [2] was “(21.37%)”.
